{"source": "patent US20140227731A1", "about": "“DRUG FOR ANALYSIS OF WATER TRANSPORT FUNCTION OF MEMBRANE PROTEIN IN BIOLOGICAL TISSUE” (TAIYO NIPPON SANSO CORPORATION, priority 2013, published 2014)", "test_system": "radish", "assay": "Permeation of red food coloring water into round radish slices", "method": "Using radish that was cut into round slices with thicknesses of 6-10 cm, the bottom faces of the round slices were immersed in red food coloring water for 1-16 hours, As the red food coloring, Red No. 102 (chemical name: 7-hydroxy-8-(4-sulfonaphthylazo)-1,3-naphthylenedisulfonic acid=trisodium salt=1½ hydrate) was used."}
{"smiles": "O.O.O.O=S(=O)([O-])c1cc(S(=O)(=O)[O-])c2c(N=Nc3ccc(S(=O)(=O)[O-])c4ccccc34)c(O)ccc2c1.O=S(=O)([O-])c1cc(S(=O)(=O)[O-])c2c(N=Nc3ccc(S(=O)(=O)[O-])c4ccccc34)c(O)ccc2c1.[Na+].[Na+].[Na+].[Na+].[Na+].[Na+]", "note": "[Red No. 102, 7-hydroxy-8-(4-sulfonaphthylazo)-1,3-naphthylenedisulfonic acid=trisodium salt=1½ hydrate]", "values": [{"measurement": "permeation of red food coloring into radish tissue", "setting": "bottom face immersed, one hour elapsed", "value": "had soaked into the connective tissue at the periphery of the round slices from the bottom face"}, {"measurement": "sites permeated by red food coloring water", "setting": "immersed for 16 hours", "value": "not found anywhere other than the connective tissue"}]}
